Measurements published in patent publication US9200319B2, “Nucleotides and nucleosides and methods for their use in DNA sequencing” (Lasergen, Inc., priority 2008, dated 2015).
“And” between values parts separate entries of the source, which are not always exact repeats. Identical values can stand only once. Like-named read-outs stand apart in the source and are kept apart here.

Assays:
[1] = UV-cleavage of incorporated nucleotide analogs with 365 nm light; conditions: 365 nm UV light, 50 mM NaN3; time at which half the incorporated analog is cleaved
Protocol: Cleavage of the terminating substituted 2-nitrobenzyl group when analogs are incorporated into the primer strand with 365 nm UV light allows for the next cycle of incorporation to resume. Without being bound by theory, at least two factors were found typically influence UV-cleavage rates of incorporated nucleotide analogs: a) stereo-chemistry of the α-carbon substitution of the 2-nitrobenzyl group, and b) substitution on the benzyl ring. Incorporation on a matched template is performed as described above using 1 μM concentration to extend the primer strand. Ten identical tubes are used for each incorporation experiment, after which NaN3 is added to a final concentration of 50 mM. Extended primer reactions are exposed to 365 nm light for various time points using the UV deprotector device described by Wu et al. (2007, which is incorporated herein by reference) and analyzed using an AB model 377 DNA sequencer. The quantitative data are plotted linearly as product formation versus exposure time, and the time point at which half the nucleotide analog is cleaved is calculated, as a DT50 value. […] For example, based on these examples, the ds2 analogs show faster cleavage rates (e.g., lower DT50 values) compared with ds1 analogs. Furthermore, substitution of a methoxy group at the 4 position on the benzyl ring further increases the rate of UV-cleavage, albeit for ds2 analogs only (e.g., the DT50 value for 5p098-ds2 is […] versus that of 1.9 sec for 6p087-ds2). Based on the examples summarized in Table 3, substitution at the α-carbon of the 2-nitrobenzyl ring increases UV-cleavage in a stereospecific manner.

[2] = biological target: T1, THERMINATOR™ DNA polymerase (Thermococcus sp., UniProt Q56366, A485L/D141A/E143A); experiment: biochemical; parameters: species or system Thermococcus species 9° N-7
T1 construct: purchased New England Biolabs
Protocol: (§1) Natural and modified nucleotides were tested for incorporation efficiency using the “polymerase end point assay” (Wu et al., 2007, which is incorporated herein by reference). This assay examines incorporation efficiency on matched and mismatched template bases. Incorporation efficiency is measured by determining the concentration at which the compound incorporates on half the primer-template complexes (IC50). Titrations of increasing compound concentration were performed to generate curves from which the IC50 can be determined.
(§2) The sequence of the template DNA is selected depending on which compound will be tested. For example, the first interrogation base after the primer in the template sequence is the complement base of the compound when measuring incorporation efficiency, and one of three mismatched bases when measuring mismatch discrimination properties.
(§3) To the annealed reaction, a DNA polymerase (e.g., THERMINATOR™ DNA polymerase, 0.25 units per reaction, New England Biolabs), 1× Thermopol Buffer, and a known concentration of either natural or modified nucleotide are added to each 10 μL reaction and incubated at 75° C. for 10 minutes, cooled on ice, and quenched with 10 μL of stop solution (98% formamide: 10 mM Na2EDTA, pH=8.0, 25 mg/ml Blue Dextran). Stopped reactions are heated to 75° C. for 30 seconds to denature the DNA, and then placed on ice. The extension products are analyzed on a 10% Long Ranger (Lonza) polyacrylamide gel using an ABI model 377 DNA sequencer. Additional details are provided in Example 1, below.
Polymerase Assays. Natural and modified nucleotides were tested for incorporation efficiency using the “polymerase end point assay” (Wu et al., 2007, which is incorporated herein by reference). This assay examines incorporation efficiency on matched and mismatched template bases. Incorporation efficiency is measured by determining the concentration at which the compound incorporates on half the primer-template complexes (IC50). Titrations of increasing compound concentration were performed to generate curves from which the IC50 can be determined.
The assay is performed by first annealing 5 nM of BODIPY-FL labeled primer with 40 nM template DNA in 1× Thermopol Buffer (20 mM Tris-HCl, pH 8.8; 10 mM (NH4)2SO4; 10 mM KCl; 2 mM MgSO4; 0.1% Triton X-100, New England BioLabs).
as §2, with “The temperature cycle to complete primer annealing is 80° C. for 30 seconds, 57° C. for 30 seconds, then cooling to 4° C. The” for “The”
as §3, with “sequencer.” for “sequencer. Additional details are provided in Example 1, below.”

[3] = biological target: T1, THERMINATOR™ DNA polymerase; experiment: polymerase end point assay, mismatch discrimination (mismatched template bases); type: biochemical, Thermococcus species 9° N-7
Protocol: as §1, §2
The mismatch/match ratios represent the ability of the polymerase to distinguish between correctly incorporating against a matched template base and a mismatch one. Discrimination is considered sufficient when the mismatch/match ratio is greater than or equal to 100 (two orders of magnitude). […] Both natural dGTP and C^7-(2-nitrobenzyloxy)methyl-2′-dGTP (5p107) show mismatch/match ratios ranging from 10 to 360, and 10 to 250, respectively, two of which are below the 100-fold threshold. […] A similar trend is observed for the C^7-hydroxymethyl-dATP analogs. For the compounds shown in Table 1, substitution at the α-carbon of the 2-nitrobenzyl group increases mismatch discrimination in a stereo-specific manner.
as §2, with “The temperature cycle to complete primer annealing is 80° C. for 30 seconds, 57° C. for 30 seconds, then cooling to 4° C. The” for “The”
as §3, with “sequencer.” for “sequencer. Additional details are provided in Example 1, below.”

[4] = biological target: T1, THERMINATOR™ DNA polymerase; experiment: termination assay, weighted sum analysis on homopolymer repeat template; type: biochemical, Thermococcus species 9° N-7; conditions: 1.0 = complete termination after a single incorporation
Protocol: A weighted sum of 1.0 represents complete termination after a single incorporation, while a value greater than 1.0 indicates incorporation beyond the +1 position (e.g. nucleotide read through). […] The assay is performed as described above for the polymerase end-point assay, except that the template used is a homopolymer repeat, thereby allowing for multiple incorporations of a given nucleotide compound.

[5] = IC50 for incorporation, concentration at which the compound incorporates on half the primer-template complexes, complement template base

T1 sequence (Q56366 whole entry D141A/E143A/A485L): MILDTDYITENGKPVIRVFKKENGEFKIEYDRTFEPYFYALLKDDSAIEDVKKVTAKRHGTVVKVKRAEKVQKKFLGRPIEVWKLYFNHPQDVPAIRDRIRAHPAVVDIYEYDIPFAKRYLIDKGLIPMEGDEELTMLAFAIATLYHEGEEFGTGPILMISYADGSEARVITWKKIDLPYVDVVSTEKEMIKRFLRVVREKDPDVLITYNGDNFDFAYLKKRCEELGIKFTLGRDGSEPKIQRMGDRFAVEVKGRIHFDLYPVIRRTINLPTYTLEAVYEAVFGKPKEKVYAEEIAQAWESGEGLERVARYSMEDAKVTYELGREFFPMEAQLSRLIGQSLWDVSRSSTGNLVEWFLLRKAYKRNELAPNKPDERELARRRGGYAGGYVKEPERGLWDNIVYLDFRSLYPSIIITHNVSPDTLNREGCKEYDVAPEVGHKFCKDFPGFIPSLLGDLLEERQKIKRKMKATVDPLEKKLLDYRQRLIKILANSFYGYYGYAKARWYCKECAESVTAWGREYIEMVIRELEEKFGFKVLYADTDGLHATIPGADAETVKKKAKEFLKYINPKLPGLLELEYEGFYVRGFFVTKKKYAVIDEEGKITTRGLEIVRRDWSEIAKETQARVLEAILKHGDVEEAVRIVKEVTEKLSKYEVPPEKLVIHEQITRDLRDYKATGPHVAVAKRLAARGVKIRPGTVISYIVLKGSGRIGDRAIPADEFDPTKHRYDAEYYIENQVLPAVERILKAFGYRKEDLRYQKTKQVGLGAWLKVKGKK

CC(C)C(OCc1cn([C@H]2C[C@H](O)[C@@H](COP(=O)(O)OP(=O)(O)OP(=O)(O)O)O2)c2ncnc(N)c12)c1ccccc1[N+](=O)[O-] (single isomer, unassigned) [5p098-ds1, 7-[1-(2-nitrophenyl)-2-methyl-propyloxy]methyl-7-deaza-2′-deoxyadenosine-5′-triphosphate]
DT50 [1]: 7.5 ± 0.8 s | IC50 [2, 5]: 6.7 ± 0.8 nM

CC(C)C(OCc1cn([C@H]2C[C@H](O)[C@@H](COP(=O)(O)OP(=O)(O)OP(=O)(O)O)O2)c2ncnc(N)c12)c1ccccc1[N+](=O)[O-] (single isomer, unassigned) [5p098-ds2, 7-[1-(2-nitrophenyl)-2-methyl-propyloxy]methyl-7-deaza-2′-deoxyadenosine-5′-triphosphate]
DT50 [1]: 3.3 s and 3.3 ± 0.2 s | IC50 [2, 5]: 5.7 ± 1.1 nM

CC(C)C(OCc1cn([C@H]2C[C@H](O)[C@@H](COP(=O)(O)OP(=O)(O)OP(=O)(O)O)O2)c2nc(N)[nH]c(=O)c12)c1ccccc1[N+](=O)[O-] (single isomer, unassigned) [5p143-ds1, 7-[1-(2-nitrophenyl)-2-methyl-propyloxy]methyl-7-deaza-2′-deoxyguanosine-5′-triphosphate]
Mismatch/match ratio (10^2) ([3]; template base "A"): >830 10^2 | Mismatch/match ratio (10^2) ([3]; template base "G"): >21 10^2 | Mismatch/match ratio (10^2) ([3]; template base "T"): 5 10^2 | IC50 [2, 5]: 1.2 ± 0.2 nM

CC(C)C(OCc1cn([C@H]2C[C@H](O)[C@@H](COP(=O)(O)OP(=O)(O)OP(=O)(O)O)O2)c2nc(N)[nH]c(=O)c12)c1ccccc1[N+](=O)[O-] (single isomer, unassigned) [5p143-ds2, 7-[1-(2-nitrophenyl)-2-methyl-propyloxy]methyl-7-deaza-2′-deoxyguanosine-5′-triphosphate]
Mismatch/match ratio (10^2) ([3]; template base "A"): >770 10^2 | Mismatch/match ratio (10^2) ([3]; template base "G"): >7.7 10^2 | Mismatch/match ratio (10^2) ([3]; template base "T"): 2.5 10^2 | IC50 [2, 5]: 1.3 ± 0.3 nM

CC(C)C(OCc1cn([C@H]2C[C@H](O)[C@@H](COP(=O)(O)OP(=O)(O)OP(=O)(O)O)O2)c2ncnc(N)c12)c1c([N+](=O)[O-])cccc1[N+](=O)[O-] (single isomer, unassigned) [6p057-ds1, 7-[1-(2,6-dinitrophenyl)-2-methyl-propyloxy]methyl-7-deaza-2′-deoxyadenosine-5′-triphosphate]
DT50 [1]: 7.3 ± 1.2 s | IC50 [2, 5]: 5.2 ± 0.2 nM

CC(C)C(OCc1cn([C@H]2C[C@H](O)[C@@H](COP(=O)(O)OP(=O)(O)OP(=O)(O)O)O2)c2ncnc(N)c12)c1c([N+](=O)[O-])cccc1[N+](=O)[O-] (single isomer, unassigned) [6p057-ds2, 7-[1-(2,6-dinitrophenyl)-2-methyl-propyloxy]methyl-7-deaza-2′-deoxyadenosine-5′-triphosphate]
DT50 [1]: 4.8 ± 0.5 s | IC50 [2, 5]: 5.8 ± 1.1 nM

COc1ccc(C(OCc2cn([C@H]3C[C@H](O)[C@@H](COP(=O)(O)OP(=O)(O)OP(=O)(O)O)O3)c3ncnc(N)c23)C(C)C)c([N+](=O)[O-])c1 (single isomer, unassigned) [6p087-ds1, 7-[1-(4-methoxy-2-nitrophenyl)-2-methyl-propyloxy]methyl-7-deaza-2′-deoxyadenosine-5′-triphosphate]
DT50 [1]: 8.8 ± 0.6 s | IC50 [2, 5]: 15 ± 1 nM

COc1ccc(C(OCc2cn([C@H]3C[C@H](O)[C@@H](COP(=O)(O)OP(=O)(O)OP(=O)(O)O)O3)c3ncnc(N)c23)C(C)C)c([N+](=O)[O-])c1 (single isomer, unassigned) [6p087-ds2, 7-[1-(4-methoxy-2-nitrophenyl)-2-methyl-propyloxy]methyl-7-deaza-2′-deoxyadenosine-5′-triphosphate]
DT50 [1]: 1.9 s and 1.9 ± 0.1 s | IC50 [2, 5]: 18 ± 3 nM

Nc1nc2c(c(COCc3ccccc3[N+](=O)[O-])cn2[C@H]2C[C@H](O)[C@@H](COP(=O)(O)OP(=O)(O)OP(=O)(O)O)O2)c(=O)[nH]1 [5p107, 7-(2-nitrobenzyloxy)methyl-7-deaza-2′-deoxyguanosine-5′-triphosphate]
Mismatch/match ratio (10^2) ([3]; template base "A"): 2.5 10^2 | Mismatch/match ratio (10^2) ([3]; template base "G"): 0.4 10^2 | Mismatch/match ratio (10^2) ([3]; template base "T"): 0.1 10^2 | IC50 [2, 5]: 1.5 ± 0.3 nM

Nc1nc2c(ncn2[C@H]2C[C@H](O)[C@@H](COP(=O)(O)OP(=O)(O)OP(=O)(O)O)O2)c(=O)[nH]1 [dGTP, reference compound]
Mismatch/match ratio (10^2) ([3]; template base "A"): 3.6 10^2 | Mismatch/match ratio (10^2) ([3]; template base "G"): 0.2 10^2 | Mismatch/match ratio (10^2) ([3]; template base "T"): 0.1 10^2

Cc1cn([C@H]2C[C@H](O)[C@@H](COP(=O)(O)OP(=O)(O)OP(=O)(O)O)O2)c(=O)[nH]c1=O [dTTP, reference compound]
Average Weighted Sum ± SD ([4]; 1x IC50): 0.68 | Average Weighted Sum ± SD ([4]; 5x IC50): 3.0 | Average Weighted Sum ± SD ([4]; 25x IC50): 12.2 | IC50 ([2]; adjusted IC50 used to set the concentrations of the termination assay, read-out: Adj IC50 Conc): 2.1 nM
